Experimental findings from patent publication EP2818472A1, “Imidazo[4,5-c]pyridine and pyrrolo[3,2-c]pyridine compounds as G-protein-coupled receptor kinase 5 (GRK5) modulators” (Max-Planck-Gesellschaft zur Förderung der Wissenschaften …, priority 2013, dated 2014) are described below.

A value given as a limit tells only on which side of the number the result lay.

The assay concerns beta-TC6 cells. Briefly: Insulin HTRF assay (relative activity Ar) in beta-TC6 cells. It is filed as cell-based, mouse. To be noted: Mus musculus, Beta-TC6, 4 h, insulin HTRF, supernatant of beta-TC6 cells, incubation with test compound at 37°C for 2, 3, 4h; read-out: Ar (relative activity). The essentials: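 beta-TC6 cells (15k/well, seeded 24 or 48 h) washed, then exposed to compound in induction buffer (0.5% DMSO final) for 2, 3 or 4 h at 37°C.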
For the compound `COc1cc(Nc2cc3c(cn2)cc(-c2cnn(C)c2)n3C)cc(OC)c1OC` [Compound 125, 1-methyl-2-(1-methylpyrazol-4-yl)-N-(3,4,5-trimethoxyphenyl)pyrrolo[3,2-c]pyridin-6-amine], the Emax is over 100%. The figure for `CNc1nc2cnc(Nc3cccc(NC(C)=O)c3)cc2n1Cc1ccccc1` [Compound 538, N-[3-[[1-benzyl-2-(methylamino)imidazo[4,5-c]pyridin-6-yl]amino]phenyl]acetamide] is 50 to 100%. For the compound `COc1ccc(Nc2cc3c(cn2)nc(NCc2ccccc2)n3C)cc1` [Compound 621, N2-benzyl-N6-(4-methoxyphenyl)-1-methyl-imidazo[4,5-c]pyridine-2,6-diamine], the Emax was 50 to 100%. With `Cn1c(-c2ccc3ccccc3n2)nc2cnccc21` [Compound 778, 2-(1-methylimidazo[4,5-c]pyridin-2-yl)quinoline], the Emax is 0 to 30%. `CNc1nc2cnc(Nc3cccc(F)c3)cc2n1Cc1ccc(OC)c(OC)c1` [Compound 674, 1-[(3,4-dimethoxyphenyl)methyl]-N6-(3-fluorophenyl)-N2-methyl-imidazo[4,5-c]pyridine-2,6-diamine]: the Emax fell in the range of 30 to 50%. Then `COc1ccc(Nc2cc3c(cn2)cc(-c2cccnc2)n3C)cn1` [Compound 86, N-(6-methoxy-3-pyridyl)-1-methyl-2-(3-pyridyl)pyrrolo[3,2-c]pyridin-6-amine], with 50 to 100%. Regarding `CS(=O)(=O)c1ccc(Nc2cc3[nH]c(-c4cccc(F)c4)cc3cn2)cc1` [Compound 16, 2-(3-fluorophenyl)-N-(4-methylsulfonylphenyl)-1H-pyrrolo[3,2-c]pyridin-6-amine], the Emax lay within 30 to 50%.

Turning to `COCCNc1nc2cnc(-c3cccc(OC(F)(F)F)c3)cc2n1C` [Compound 855, N-(2-methoxyethyl)-1-methyl-6-[3-(trifluoromethoxy)phenyl]imidazo[4,5-c]pyridin-2-amine], the Emax lay within 30 to 50%. Consider `CNc1nc2cnc(-c3cccs3)cc2n1-c1ccccc1` [Compound 514, N-methyl-1-phenyl-6-(2-thienyl)imidazo[4,5-c]pyridin-2-amine], for which the Emax lay within 30 to 50%.

Regarding `CC(=O)Nc1cccc(Nc2cc3c(cn2)cc(-c2cnn(C)c2)n3C)c1` [Compound 149, N-[3-[[1-methyl-2-(1-methylpyrazol-4-yl)pyrrolo[3,2-c]pyridin-6-yl]amino]phenyl]acetamide], the Emax was over 100%. On to `CN1CCN(c2nccc3[nH]c(-c4ccccc4)nc23)CC1` [Compound 334, 4-(4-methylpiperazin-1-yl)-2-phenyl-1H-imidazo[4,5-c]pyridine], for which the Emax was 30 to 50%. With `CNc1nc2cnc(-c3cccnc3OC)cc2n1-c1ccccc1` [Compound 788, 6-(2-methoxy-3-pyridyl)-N-methyl-1-phenyl-imidazo[4,5-c]pyridin-2-amine], the Emax is 30 to 50%. Regarding `Cn1c(-c2ccsc2)cc2c(Nc3ccc(C#N)cc3)nccc21` [Compound 281, 4-[[1-methyl-2-(3-thienyl)pyrrolo[3,2-c]pyridin-4-yl]amino]benzonitrile], the Emax fell in the range of 0 to 30%. The figure for `CNc1nc2cnc(Nc3cccc(C(C)C)c3)cc2n1CCOC` [Compound 772, N6-(3-isopropylphenyl)-1-(2-methoxyethyl)-N2-methyl-imidazo[4,5-c]pyridine-2,6-diamine] is 0 to 30%.

`COc1cccc(Nc2nccc3[nH]c(-c4cccc(OC)c4)nc23)c1` [Compound 368, N,2-bis(3-methoxyphenyl)-1H-imidazo[4,5-c]pyridin-4-amine]: the Emax fell in the range of 30 to 50%. On to `COc1ccc(CNc2nc3cnc(Nc4ccccc4)cc3n2C)cc1OC` [Compound 604, N2-[(3,4-dimethoxyphenyl)methyl]-1-methyl-N6-phenyl-imidazo[4,5-c]pyridine-2,6-diamine], for which the Emax is 30 to 50%. In the case of `COc1ccc(-c2nc3cnc(Nc4ccc(NC(C)=O)cc4)cc3n2C)cc1OC` [Compound 717, N-[4-[[2-(3,4-dimethoxyphenyl)-1-methyl-imidazo[4,5-c]pyridin-6-yl]amino]phenyl]acetamide], the Emax is 50 to 100%. The figure for `CN1CCN(c2nccc3[nH]c(-c4cccc(OC(F)(F)F)c4)nc23)CC1` [Compound 442, 4-(4-methylpiperazin-1-yl)-2-[3-(trifluoromethoxy)phenyl]-1H-imidazo[4,5-c]pyridine] is 30 to 50%. With `Cn1c(NCc2ccccc2F)nc2cnc(-c3cccc(Cl)c3)cc21` [Compound 866, 6-(3-chlorophenyl)-N-[(2-fluorophenyl)methyl]-1-methyl-imidazo[4,5-c]pyridin-2-amine], the Emax lay within 30 to 50%.

For `CNc1nc2cnc(Nc3cccc(F)c3)cc2n1-c1cc(OC)c(OC)c(OC)c1` [Compound 494, N6-(3-fluorophenyl)-N2-methyl-1-(3,4,5-trimethoxyphenyl)imidazo[4,5-c]pyridine-2,6-diamine], the Emax lay in the range of 30 to 50%. Then `COc1cccc(Nc2nccc3[nH]c(-c4ccncc4)nc23)c1` [Compound 422, N-(3-methoxyphenyl)-2-(4-pyridyl)-1H-imidazo[4,5-c]pyridin-4-amine], with 30 to 50%. The figure for `Cc1cccc(-c2nc3c(Nc4cccc(NS(C)(=O)=O)c4)nccc3[nH]2)c1` [Compound 439, N-[3-[[2-(m-tolyl)-1H-imidazo[4,5-c]pyridin-4-yl]amino]phenyl]methanesulfonamide] is 30 to 50%; for `Cn1c(NCc2ccccc2F)nc2cnc(-c3cccc(CO)c3)cc21` [Compound 868, [3-[2-[(2-fluorophenyl)methylamino]-1-methyl-imidazo[4,5-c]pyridin-6-yl]phenyl]methanol] it is 0 to 30%; for `CNc1nc2cnc(Nc3ccc4c(c3)OCCO4)cc2n1-c1cccc(C(F)(F)F)c1` [Compound 544, N6-(2,3-dihydro-1,4-benzodioxin-6-yl)-N2-methyl-1-[3-(trifluoromethyl)phenyl]imidazo[4,5-c]pyridine-2,6-diamine] it is 50 to 100%. The figure for `Fc1ccc(-c2nc3ccncc3[nH]2)cc1` [Compound 775, 2-(4-fluorophenyl)-3H-imidazo[4,5-c]pyridine] is 0 to 30%; for `CNc1nc2cnc(Nc3cccc(NC(C)=O)c3)cc2n1CC1CC1` [Compound 574, N-[3-[[1-(cyclopropylmethyl)-2-(methylamino)imidazo[4,5-c]pyridin-6-yl]amino]phenyl]acetamide] it is 50 to 100%; for `CNc1nc2cnc(Nc3ccc(OC)cc3)cc2n1-c1cccc(C(F)(F)F)c1` [Compound 547, N6-(4-methoxyphenyl)-N2-methyl-1-[3-(trifluoromethyl)phenyl]imidazo[4,5-c]pyridine-2,6-diamine] it is 30 to 50%. On to `COc1ccc(Nc2nccc3[nH]c(-c4ccncc4)nc23)cc1OC` [Compound 423, N-(3,4-dimethoxyphenyl)-2-(4-pyridyl)-1H-imidazo[4,5-c]pyridin-4-amine], for which the Emax is over 100%.

Consider `COc1ccc(Cn2cnc3cnc(-c4cc(OC)c(OC)c(OC)c4)cc32)cc1OC` [Compound 738, 1-[(3,4-dimethoxyphenyl)methyl]-6-(3,4,5-trimethoxyphenyl)imidazo[4,5-c]pyridine], for which the Emax lay within 30 to 50%. The figure for `CC(=O)Nc1ccc(Nc2nccc3[nH]c(-c4cccnc4)cc23)cc1` [Compound 231, N-[4-[[2-(3-pyridyl)-1H-pyrrolo[3,2-c]pyridin-4-yl]amino]phenyl]acetamide] is over 100%; for `COc1ccc(Nc2nccc3[nH]c(-c4cccc(F)c4)cc23)cc1O` [Compound 204, 5-[[2-(3-fluorophenyl)-1H-pyrrolo[3,2-c]pyridin-4-yl]amino]-2-methoxy-phenol] it is 50 to 100%. As for `CNc1nc2cnc(-c3cccc(N(C)C)c3)cc2n1-c1ccccc1` [Compound 783, 6-[3-(dimethylamino)phenyl]-N-methyl-1-phenyl-imidazo[4,5-c]pyridin-2-amine], the Emax was 0 to 30%. Then `COc1cccc(-c2nc3c(N4CCOCC4)nccc3[nH]2)c1` [Compound 375, 4-[2-(3-methoxyphenyl)-1H-imidazo[4,5-c]pyridin-4-yl]morpholine], with 30 to 50%. Then `COc1ccc(-c2nc3c(Nc4cccc(O)c4)nccc3[nH]2)cc1OC` [Compound 352, 3-[[2-(3,4-dimethoxyphenyl)-1H-imidazo[4,5-c]pyridin-4-yl]amino]phenol], with over 100%.

Turning to `Cn1c(Nc2ccccc2)nc2cnc(-c3ccc(N4CCOCC4)cc3)cc21` [Compound 630, 1-methyl-6-(4-morpholinophenyl)-N-phenyl-imidazo[4,5-c]pyridin-2-amine], the Emax was 50 to 100%. Then `CNc1nc2cnc(Nc3ccc(OC)cc3)cc2n1-c1cc(OC)c(OC)c(OC)c1` [Compound 490, N6-(4-methoxyphenyl)-N2-methyl-1-(3,4,5-trimethoxyphenyl)imidazo[4,5-c]pyridine-2,6-diamine], with 50 to 100%; and `CNc1nc2cnc(-c3ccc(O)c(OC)c3)cc2n1-c1cccc(F)c1` [Compound 888, 4-[1-(3-fluorophenyl)-2-(methylamino)imidazo[4,5-c]pyridin-6-yl]-2-methoxy-phenol], with 30 to 50%; and `Cn1c(Nc2ccccc2)nc2cnc(-c3cccc4ccccc34)cc21` [Compound 635, 1-methyl-6-(1-naphthyl)-N-phenyl-imidazo[4,5-c]pyridin-2-amine], with 30 to 50%. The figure for `CC(=O)N(C)c1cccc(-c2cc3c(Nc4ccc(OC(F)(F)F)cc4)nccc3n2C)c1` [Compound 248, N-methyl-N-[3-[1-methyl-4-[4-(trifluoromethoxy)anilino]pyrrolo[3,2-c]pyridin-2-yl]phenyl]acetamide] is 0 to 30%; for `CNc1nc2cnc(Nc3ccc(OC)nc3)cc2n1-c1cc(OC)c(OC)c(OC)c1` [Compound 488, N6-(6-methoxy-3-pyridyl)-N2-methyl-1-(3,4,5-trimethoxyphenyl)imidazo[4,5-c]pyridine-2,6-diamine] it is 50 to 100%. Consider `Fc1cccc(-c2cc3c(cn2)ncn3-c2ccccc2)c1` [Compound 733, 6-(3-fluorophenyl)-1-phenyl-imidazo[4,5-c]pyridine], for which the Emax is 30 to 50%.
